What was measured:
[1] = molecular target: T1, 4-HPA hydroxylase of K. pneumoniae (Klebsiella oxytoca, UniProt Q48440); assay: Hidroxylase activity expressed by E. coli P260 on different aromatic compounds; type: biochemical; design: concentration or dose not given beside the values; conditions: compound as organic substrate of the enzyme expressed by E. coli P260
T1 construct: expressed in transfected cells; host or cells: E. coli CC118 (K-12) transformed with pG260 = E. coli P260 (CECT 4627)
From the text: (§1) By means of hydroxylation, this enzyme transforms 3-HPA and 4-HPA into 3,4-DHPA which, after the subdequent action of a dioxygenase, loses its aromaticity. For the isolation of these genes, the chromosomic DNA of K. pneumoniae was isolated and digested with the restriction enzyme Bam Hl. As a cloning vector the plasmid pUC18Not was chosen (Herrero et al., 1990; J. Bacteriol. 72:6557-67), digested with BamHl and dephosphorilated. Bonding mixtures were used in the transformation of the mutant strain W-21 of E. coli (Lacrec A), a mutant deficient in the 4-HPA hydroxylase enzyme. The transformants were select on plates that contained ampicillin (100 µg/ml), IPTG and X-Gal and subsequently on selected media with Ampicillin and 4-HPA as the sole source of carbon and energy. A recombinant plasmid complemented the 4-HPA mutation of E. coli W-21 and treating this transformant with acridin orange caused reversion to the mutant phenotype (due to loss of plasmids). […] Synthesis of the enzyme was checked by determining enzymatic activity in "standard" conditions, by means of a spectrophotometric test (Martin et al., 1991; J. Gen. Microbiol. 132: 621-628). In this way it was established that the enzyme synthesized constitutively in the strains of E. coli derived from K-12 (strains incapable of metabolizing 4-HPA because they lack all the genes of the degradative route), unlike what occurs in K. pneumoniae M5a1 or E. coli W, where synthesis of the enzyme is inducible by 3-HPA and/or 4-HPA. The E. coli K-12 (E. coli CC118) strains, transformed by the recombinant plasmid, were called E. coli P260. […]
The E. coli P260 cultures produced a blackish brown pigmentation in LB or BHI as a consequence of the expression of the cloned genes. […] To investigate this hypothesis, several aromatic compounds were analyzed, different from 3-HPA and 4-HPA, as possible substrates of the enzyme (Table 2).

[2] = tested on: 4-HPA hidroxylase; assay: 4-HPA hydroxylase activity of strains, spectrophotometric test in standard conditions; type: biochemical, K. pneumoniae
From the text: as §1

[3] = tested on: E. coli W-P260 strain; assay: Biodegradation (mineralization) of the aromatic compound by a growing culture, 14C-CO2 trapping and HPLC; type: cell-based; conditions: minimum PJC medium with glycerol and 4-HPA 2.5 mM, 30°C, 200 rpm
Method: In a test experiment, the following procedure was carried out: the E. coli W-P260 strain (obtained by transformation of the E. coli W-21 strain, mutant in hpa genes) was grown in a minimum PJC medium supplemented with glycerol and 4-HPA 2.5 mM (10% of which was marked with ^14C in the aromatic ring). Incubation was carried out at 30°C and with stirring (200 rpm). In order to quantify the biotransformation of the aromatic ring, the CO2 formed during the process was collected on NaOH 1N located in the lid of the matrass so that it would act as a trapping agent. Samples were taken at different times (Figure 3) so as to evaluate the formation of biomass (DO 680), release of CO2 (cpm) and the disappearance of 4 HPA (measurement of concentration by HPLC). In Figure 3 it may be observed how the mineralization capacity of the E. coli W-P260 strain achieves mineralization of the aromatic compound in 12 hours.

T1 sequence (Q48440 whole entry): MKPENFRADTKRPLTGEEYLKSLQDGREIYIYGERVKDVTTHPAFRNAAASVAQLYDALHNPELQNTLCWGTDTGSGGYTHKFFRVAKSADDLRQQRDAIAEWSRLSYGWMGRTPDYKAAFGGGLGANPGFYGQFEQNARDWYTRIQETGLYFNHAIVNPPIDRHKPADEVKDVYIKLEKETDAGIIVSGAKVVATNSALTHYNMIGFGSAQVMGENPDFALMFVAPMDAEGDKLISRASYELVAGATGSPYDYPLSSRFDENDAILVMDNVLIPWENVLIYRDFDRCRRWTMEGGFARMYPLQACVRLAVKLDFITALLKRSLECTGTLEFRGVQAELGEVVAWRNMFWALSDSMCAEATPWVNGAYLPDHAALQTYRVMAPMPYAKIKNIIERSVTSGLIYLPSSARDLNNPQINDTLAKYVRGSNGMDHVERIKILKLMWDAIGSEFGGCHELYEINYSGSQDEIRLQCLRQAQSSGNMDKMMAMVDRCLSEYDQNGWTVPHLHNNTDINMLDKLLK

O=C(O)Cc1ccccc1O [2-HPA, 2-Hydroxyphenylacetate]
% ACTIVITY [1]: < 5%

O=C(O)c1ccc(O)c(O)c1 [3,4-DHBA, 3,4-Dihydroxybenzoate]
% ACTIVITY [1]: 30%

O=C(O)Cc1ccc(O)c(O)c1 [3,4-DHPA, 3,4-dihydroxyphenylacetate]
% ACTIVITY [1]: 50%

O=C(O)Cc1cccc(O)c1 [3-HPA]
4-HPA hidroxylase ([2]; strain E. coli CC118, substrate growth Gly/4-HPA): <1 | 4-HPA hidroxylase ([2]; strain E. coli P260, substrate growth Gly/4-HPA/Ap): 50±6 | 4-HPA hidroxylase ([2]; strain E. coli P260, substrate growth LB/Ap): 57±9 | 4-HPA hidroxylase ([2]; strain E. coli W-21 (plasmid), substrate growth Gly/4-HPA/Ap): 28±5 | 4-HPA hidroxylase ([2]; strain E. coli W-21 (plasmid), substrate growth LB/Ap): <5 | 4-HPA hidroxylase ([2]; strain E. coli W-21, substrate growth Gly/4-HPA): <1 | 4-HPA hidroxylase ([2]; strain K. pneumoniae M5a1, substrate growth 4-HPA): 26±9 | 4-HPA hidroxylase ([2]; strain K. pneumoniae M5a1, substrate growth LB): <1 | % ACTIVITY [1]: 100%

O=C(O)Cc1ccccc1 [PA, Phenylacetic acid]
% ACTIVITY [1]: < 5%

O=C(O)c1ccc(O)cc1 [4-HBA, 4-Hydroxybenzoate]
% ACTIVITY [1]: 15%

N[C@@H](Cc1ccc(O)cc1)C(=O)O [L-Tyr, L-Tyrosine]
% ACTIVITY [1]: 8%

Oc1ccccc1O [Catecol]
% ACTIVITY [1]: 30%

N[C@@H](Cc1ccc(O)c(O)c1)C(=O)O (racemic) [L-Dopa, DL-Dihydroxyphenylalanin]
% ACTIVITY [1]: 10%

O=C(O)Cc1ccc(O)cc1 [4-HPA, 4-hydroxyphenylacetate]
% ACTIVITY [1]: 100% | mineralization of the aromatic compound [3]: 12 h
